According to patent US20260365670A1, “EGFR INHIBITORS AND USES THEREOF” (DIZAL (JIANGSU) PHARMACEUTICAL CO., LTD., priority 2022, published 2026):
Like-named read-outs stand apart in the source and are kept apart here.

Legend:
PC-9 = assay: Cell proliferation assay, PC-9 cells (CellTiter-Glo, 72 hours); format: cell-based; settings: PC9 cells, read-out: GI50 PC9
In short: (§1)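 Growth over 72 h was quantified by CellTiter-Glo luminescence, normalised as (G3 − G0)/(DMSO G3 − G0), for PC-9 cells seeded at 500/well and EGFR-mutant Ba/F3 cells at 5000/well in RPMI1640. Compound concentration series added after overnight incubation; GI50 obtained from best-fit curves.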

EGFR L858R/T790M = biological target: T1, EGFR L858R/T790M (Homo sapiens, UniProt P00533, L858R/T790M); assay: Inhibition of EGFR L858R/T790M biochemical enzymatic activity (HTRF); settings: 1 mM ATP
T1 construct: purchased Carna Bio
T1 sequence (P00533 25-1210 T790M/L858R): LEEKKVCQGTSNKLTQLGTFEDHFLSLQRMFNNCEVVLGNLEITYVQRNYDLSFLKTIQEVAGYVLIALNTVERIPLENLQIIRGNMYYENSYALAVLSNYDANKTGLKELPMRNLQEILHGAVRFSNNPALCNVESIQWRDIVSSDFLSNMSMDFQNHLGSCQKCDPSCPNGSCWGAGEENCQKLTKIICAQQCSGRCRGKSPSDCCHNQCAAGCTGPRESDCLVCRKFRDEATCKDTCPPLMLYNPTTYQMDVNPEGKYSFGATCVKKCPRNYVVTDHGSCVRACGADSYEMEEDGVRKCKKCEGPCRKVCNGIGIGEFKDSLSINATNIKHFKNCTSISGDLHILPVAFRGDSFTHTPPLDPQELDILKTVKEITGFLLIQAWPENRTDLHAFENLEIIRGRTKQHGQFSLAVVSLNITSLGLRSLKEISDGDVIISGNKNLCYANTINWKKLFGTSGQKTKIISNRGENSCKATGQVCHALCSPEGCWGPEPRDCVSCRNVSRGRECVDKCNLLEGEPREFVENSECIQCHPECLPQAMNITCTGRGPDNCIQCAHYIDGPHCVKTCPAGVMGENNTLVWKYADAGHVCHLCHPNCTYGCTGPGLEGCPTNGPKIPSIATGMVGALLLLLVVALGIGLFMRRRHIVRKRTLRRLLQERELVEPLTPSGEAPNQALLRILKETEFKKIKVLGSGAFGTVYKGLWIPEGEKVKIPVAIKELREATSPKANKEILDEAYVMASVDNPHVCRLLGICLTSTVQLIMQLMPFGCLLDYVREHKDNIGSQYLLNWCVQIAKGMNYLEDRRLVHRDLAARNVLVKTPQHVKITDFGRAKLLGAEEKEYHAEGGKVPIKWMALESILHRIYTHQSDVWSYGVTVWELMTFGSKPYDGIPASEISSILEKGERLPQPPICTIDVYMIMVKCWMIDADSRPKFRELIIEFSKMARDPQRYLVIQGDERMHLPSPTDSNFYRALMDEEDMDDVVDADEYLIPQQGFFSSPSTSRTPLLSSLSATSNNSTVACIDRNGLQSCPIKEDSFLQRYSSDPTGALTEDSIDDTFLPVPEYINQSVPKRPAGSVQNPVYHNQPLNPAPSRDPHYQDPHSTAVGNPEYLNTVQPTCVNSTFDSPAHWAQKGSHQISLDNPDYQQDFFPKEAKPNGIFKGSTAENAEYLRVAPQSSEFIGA
In short: (§2)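 Enzyme preincubated with compound, then ATP (1 mM) and TK substrate-biotin (1 μM) added; 1 h RT; stopped with EDTA-containing detection mix; HTRF read (ex 320, em 615/665 nm); IC50 by 4-parameter logistic fit.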

[1] = biological target: T2, EGFR[T790M/C797S/d746-750] (Homo sapiens, UniProt P00533, C797S/DEL746-750/T790M); assay: Inhibition of EGFR[T790M/C797S/d746-750] biochemical enzymatic activity (HTRF)
T2 construct: purchased Carna Bio
T2 sequence (P00533 with tags, fused parts or gaps DEL746-750/T790M/C797S limits assumed): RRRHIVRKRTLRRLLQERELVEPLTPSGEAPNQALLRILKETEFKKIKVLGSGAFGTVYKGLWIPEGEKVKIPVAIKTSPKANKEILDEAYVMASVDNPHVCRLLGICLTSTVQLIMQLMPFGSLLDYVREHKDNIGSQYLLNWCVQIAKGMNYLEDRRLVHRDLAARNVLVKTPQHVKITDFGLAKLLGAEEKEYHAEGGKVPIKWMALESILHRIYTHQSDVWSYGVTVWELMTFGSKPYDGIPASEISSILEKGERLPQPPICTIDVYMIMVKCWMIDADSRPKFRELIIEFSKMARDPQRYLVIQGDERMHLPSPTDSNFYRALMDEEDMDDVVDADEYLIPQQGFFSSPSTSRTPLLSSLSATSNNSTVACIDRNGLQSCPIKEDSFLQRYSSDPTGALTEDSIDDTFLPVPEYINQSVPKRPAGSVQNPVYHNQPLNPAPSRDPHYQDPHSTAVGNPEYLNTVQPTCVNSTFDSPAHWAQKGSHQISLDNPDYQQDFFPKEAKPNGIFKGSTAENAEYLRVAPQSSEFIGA
In short: as §2

EGFR wild type = biological target: T3, EGFR wild type (Homo sapiens, UniProt P00533); assay: Inhibition of EGFR wild type biochemical enzymatic activity (HTRF); settings: 1 mM ATP
T3 construct: purchased Carna Bio
T3 sequence (P00533 25-1210): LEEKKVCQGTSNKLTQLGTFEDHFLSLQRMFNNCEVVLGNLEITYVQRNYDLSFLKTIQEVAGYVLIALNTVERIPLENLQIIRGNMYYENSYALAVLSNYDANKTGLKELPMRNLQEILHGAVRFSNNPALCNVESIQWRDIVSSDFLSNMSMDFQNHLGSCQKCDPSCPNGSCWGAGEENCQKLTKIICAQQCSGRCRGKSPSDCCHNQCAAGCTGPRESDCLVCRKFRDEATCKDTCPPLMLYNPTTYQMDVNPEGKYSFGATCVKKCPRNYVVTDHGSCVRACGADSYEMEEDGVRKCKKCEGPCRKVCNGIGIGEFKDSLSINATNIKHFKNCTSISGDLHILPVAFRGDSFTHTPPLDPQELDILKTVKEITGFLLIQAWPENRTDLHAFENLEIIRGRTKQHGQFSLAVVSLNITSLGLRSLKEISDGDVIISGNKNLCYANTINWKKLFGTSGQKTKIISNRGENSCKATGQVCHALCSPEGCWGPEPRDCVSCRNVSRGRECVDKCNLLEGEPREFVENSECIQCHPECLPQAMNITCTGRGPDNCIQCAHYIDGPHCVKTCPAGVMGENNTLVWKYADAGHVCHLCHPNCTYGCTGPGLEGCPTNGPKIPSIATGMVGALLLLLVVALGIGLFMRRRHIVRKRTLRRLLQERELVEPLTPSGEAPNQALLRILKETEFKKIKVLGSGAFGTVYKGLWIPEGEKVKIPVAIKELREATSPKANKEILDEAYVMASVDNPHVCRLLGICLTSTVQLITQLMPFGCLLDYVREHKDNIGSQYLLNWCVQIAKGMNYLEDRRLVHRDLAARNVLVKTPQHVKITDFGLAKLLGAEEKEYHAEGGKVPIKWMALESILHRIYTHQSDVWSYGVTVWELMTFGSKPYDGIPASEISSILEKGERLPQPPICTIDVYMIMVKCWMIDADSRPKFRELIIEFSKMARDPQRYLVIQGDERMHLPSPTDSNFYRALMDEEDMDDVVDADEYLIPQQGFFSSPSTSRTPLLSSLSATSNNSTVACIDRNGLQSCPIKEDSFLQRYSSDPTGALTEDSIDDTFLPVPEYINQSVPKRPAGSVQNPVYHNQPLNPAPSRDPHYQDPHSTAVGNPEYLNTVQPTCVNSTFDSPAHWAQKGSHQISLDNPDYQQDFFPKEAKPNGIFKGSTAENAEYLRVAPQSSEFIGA
In short: as §2

EGFR Exon19Del = biological target: T4, EGFR Exon19Del (Homo sapiens, UniProt P00533, DEL746-750); assay: Inhibition of EGFR Exon19Del biochemical enzymatic activity (HTRF); settings: read-out: IC50 @Del19
T4 construct: purchased Carna Bio
In short: as §2

[2] = system: Ba/F3 cells expressing EGFR mutations; assay: Cell proliferation assay, Ba/F3 cells expressing EGFR mutations (CellTiter-Glo, 72 hours); format: cell-based
In short: as §1

EGFR (d746-750 C797S) = biological target: T5, EGFR (d746-750 C797S) (Homo sapiens, UniProt P00533, C797S/DEL746-750); assay: Inhibition of EGFR (d746-750 C797S) biochemical enzymatic activity (HTRF); settings: 1 mM ATP
T5 construct: purchased signalchem
T5 sequence (P00533 with tags, fused parts or gaps DEL746-750/C797S limits assumed): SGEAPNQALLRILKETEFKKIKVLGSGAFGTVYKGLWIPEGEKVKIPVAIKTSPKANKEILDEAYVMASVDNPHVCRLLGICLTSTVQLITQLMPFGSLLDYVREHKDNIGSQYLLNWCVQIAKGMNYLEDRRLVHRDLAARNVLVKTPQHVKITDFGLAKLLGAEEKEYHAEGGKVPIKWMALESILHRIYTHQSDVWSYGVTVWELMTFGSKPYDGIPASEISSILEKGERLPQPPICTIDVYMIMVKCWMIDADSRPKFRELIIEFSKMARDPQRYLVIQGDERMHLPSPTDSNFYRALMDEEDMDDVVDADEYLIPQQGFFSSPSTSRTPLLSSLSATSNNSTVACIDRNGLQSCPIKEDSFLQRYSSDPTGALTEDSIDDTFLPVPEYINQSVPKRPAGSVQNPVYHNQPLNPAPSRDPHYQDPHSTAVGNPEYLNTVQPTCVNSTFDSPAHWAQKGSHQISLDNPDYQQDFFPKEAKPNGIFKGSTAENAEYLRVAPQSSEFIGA
In short: as §2

EGFR Exon19Del/T790M = biological target: T6, EGFR Exon19Del/T790M (Homo sapiens, UniProt P00533, DEL746-750/T790M); assay: Inhibition of EGFR Exon19Del/T790M biochemical enzymatic activity (HTRF); settings: 1 mM ATP
T6 construct: purchased Carna Bio
In short: as §2

A-431 = assay: Cell proliferation assay, A-431 cells (GI50, Table 6); format: cell-based; settings: Homo sapiens, A-431, A-431 cells
Method: [Worded in the source for another cell line; this cell line is reported under the same test.] Ba/F3 cells expressing EGFR mutations were seeded in 384-well plates at 5000 cells/well in RPMI1640 medium containing […]. PC-9 at 500 cells/well was seeded into 384-well plates in RPMI1640 medium with 10% FBS. After overnight incubation, the assay plates were dosed with compounds at a series of concentrations. Alongside dosing the assay plates, the day 0 plate was processed using CellTiter-Glo® Luminescent Cell Viability Assay (Promega) to measure the number of viable cells (G0). The assay plates were further incubated for 72 hours and the number of viable cells (G3) was measured. The percentage of proliferation was calculated as: […]=100×(G3 value of sample well−G0 value)/(G3 value of DMSO control−G0 value). The concentration of compound producing 50% proliferation inhibition (GI50) was further calculated in best-fit curves using XLFit software. N/A=not available.

EGFR L858R = biological target: T7, EGFR L858R (Homo sapiens, UniProt P00533, L858R); assay: Inhibition of EGFR L858R biochemical enzymatic activity (HTRF); settings: 1 mM ATP
T7 construct: purchased Carna Bio
In short: as §2

EGFR (C797S L858R) = biological target: T8, EGFR (C797S L858R) (Homo sapiens, UniProt P00533, C797S/L858R); assay: Inhibition of EGFR (C797S L858R) biochemical enzymatic activity (HTRF); settings: 1 mM ATP
T8 construct: purchased signalchem
T8 sequence (P00533 25-1210 C797S/L858R): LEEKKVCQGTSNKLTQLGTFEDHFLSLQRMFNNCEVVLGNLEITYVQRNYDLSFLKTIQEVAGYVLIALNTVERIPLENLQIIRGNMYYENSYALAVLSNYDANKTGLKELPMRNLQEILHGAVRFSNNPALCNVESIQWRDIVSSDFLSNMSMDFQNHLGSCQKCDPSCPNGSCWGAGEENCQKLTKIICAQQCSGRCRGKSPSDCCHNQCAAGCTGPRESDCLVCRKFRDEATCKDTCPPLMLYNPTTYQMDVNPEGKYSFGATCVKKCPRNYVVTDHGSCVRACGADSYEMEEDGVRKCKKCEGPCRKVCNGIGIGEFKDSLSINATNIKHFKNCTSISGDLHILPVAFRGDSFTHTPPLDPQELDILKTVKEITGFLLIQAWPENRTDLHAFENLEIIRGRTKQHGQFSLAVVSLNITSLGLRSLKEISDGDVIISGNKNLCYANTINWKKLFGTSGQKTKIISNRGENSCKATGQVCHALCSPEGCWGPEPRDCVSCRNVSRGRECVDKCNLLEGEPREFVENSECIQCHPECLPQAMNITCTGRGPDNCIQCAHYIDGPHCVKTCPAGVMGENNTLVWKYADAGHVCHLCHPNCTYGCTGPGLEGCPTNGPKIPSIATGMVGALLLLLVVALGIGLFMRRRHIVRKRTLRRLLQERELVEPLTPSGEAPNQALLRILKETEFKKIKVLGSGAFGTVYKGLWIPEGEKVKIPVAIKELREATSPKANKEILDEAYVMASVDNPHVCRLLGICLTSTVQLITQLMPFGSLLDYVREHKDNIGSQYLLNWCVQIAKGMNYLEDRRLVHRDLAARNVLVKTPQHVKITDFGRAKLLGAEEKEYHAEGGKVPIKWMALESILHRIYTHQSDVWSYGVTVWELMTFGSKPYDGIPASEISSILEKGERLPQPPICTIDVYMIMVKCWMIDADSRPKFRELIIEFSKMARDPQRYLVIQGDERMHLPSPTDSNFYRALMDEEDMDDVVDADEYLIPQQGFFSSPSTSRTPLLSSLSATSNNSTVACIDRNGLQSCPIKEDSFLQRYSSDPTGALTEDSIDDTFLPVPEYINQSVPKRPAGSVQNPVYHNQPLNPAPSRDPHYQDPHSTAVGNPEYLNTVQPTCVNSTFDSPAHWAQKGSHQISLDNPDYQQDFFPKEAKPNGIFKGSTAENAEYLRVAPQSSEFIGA
In short: as §2

EGFR[T790M/C797S/L858R] = biological target: T9, EGFR[T790M/C797S/L858R] (Homo sapiens, UniProt P00533, C797S/L858R/T790M); assay: Inhibition of EGFR[T790M/C797S/L858R] biochemical enzymatic activity (HTRF); settings: 1 mM ATP
T9 construct: purchased Carna Bio
In short: as §2

[3] = EGFR L858R/T790M, 1 h at room temperature, read-out: IC50 @L858R-T790M
[4] = EGFR[T790M/C797S/d746-750], 1 mM ATP, 1 h at room temperature, read-out: IC50 @T790M - C797S - Del19
[5] = EGFR wild type, 1 h at room temperature, read-out: IC50 @WT
[6] = EGFR Exon19Del, 1 mM ATP, 1 h at room temperature
[7] = BaF3 cells, EGFR DEL19 - C797S, read-out: GI50 DEL19 - C797S/BaF3
[8] = BaF3 cells, EGFR DEL19 - T790-C797S, read-out: GI50 DEL19 - T790-C797S/BaF3
[9] = BaF3 cells, EGFR L858R - C797S, read-out: GI50 L858R - C797S/BaF3
[10] = BaF3 cells, EGFR L858R - T790-C797S, read-out: GI50 L858R - T790-C797S/BaF3
[11] = BaF3 cells, EGFR L858R - T790M, read-out: GI50 L858R - T790M/BaF3
[12] = BaF3 cells, EGFR L858R, read-out: GI50 L858R/BaF3
[13] = EGFR DEL19 - T790M, read-out: GI50 DEL19 - T790M
[14] = EGFR (d746-750 C797S), 1 h at room temperature, read-out: IC50 @Del19-C797S
[15] = EGFR Exon19Del/T790M, 1 h at room temperature, read-out: IC50 @Del19-T790M
[16] = 1 h at room temperature, read-out: IC50 @L858R
[17] = EGFR (C797S L858R), 1 h at room temperature, read-out: IC50 @L858-C797S
[18] = EGFR[T790M/C797S/L858R], 1 h at room temperature, read-out: IC50 @T790M- C797S - L858R
[19] = Mus musculus, BaF3, 72 h, BaF3 cells, EGFR DEL19 - C797S, read-out: GI50 DEL19 - C797S/BaF3
[20] = Mus musculus, BaF3, 72 h, BaF3 cells, EGFR DEL19 - T790-C797S, read-out: GI50 DEL19 - T790-C797S/BaF3
[21] = Mus musculus, BaF3, 72 h, BaF3 cells, EGFR L858R - C797S, read-out: GI50 L858R - C797S/BaF3
[22] = Mus musculus, BaF3, 72 h, BaF3 cells, EGFR L858R - T790-C797S, read-out: GI50 L858R - T790-C797S/BaF3
[23] = Mus musculus, BaF3, 72 h, BaF3 cells, EGFR L858R - T790M, read-out: GI50 L858R - T790M/BaF3
[24] = Mus musculus, BaF3, 72 h, BaF3 cells, EGFR L858R, read-out: GI50 L858R/BaF3
[25] = Mus musculus, BaF3, 72 h, EGFR DEL19 - T790M, read-out: GI50 DEL19 - T790M

| Compound | GI50 (PC-9) [nM] | IC50 (EGFR L858R/T790M; [3]) [nM] | IC50 [1, 4] [nM] | IC50 (EGFR wild type; [5]) [nM] | IC50 (EGFR Exon19Del; [6]) [nM] | GI50 [2, 7] [nM] | GI50 [2, 8] [nM] | GI50 [2, 9] [nM] | GI50 [2, 10] [nM] | GI50 [2, 11] [nM] | GI50 [2, 12] [nM] | GI50 [2, 13] [nM] | IC50 (EGFR (d746-750 C797S); [14]) [nM] | IC50 (EGFR Exon19Del/T790M; [15]) [nM] | GI50 (A-431) [nM] | IC50 (EGFR L858R; [16]) [nM] | IC50 (EGFR (C797S L858R); [17]) [nM] | IC50 (EGFR[T790M/C797S/L858R]; [18]) [nM] | GI50 (PC-9; Homo sapiens, PC-9, 72 h) [nM] | GI50 [2, 19] [nM] | also measured |
| --- | --- | --- | --- | --- | --- | --- | --- | --- | --- | --- | --- | --- | --- | --- | --- | --- | --- | --- | --- | --- | --- |
| Cc1cc2cc(n1)-c1cnn(C)c1OCCN1CC3CCC(C3)(C1)n1c(nc3ccc(N4CC[C@H](N(C)C)C4)cc31)NC2=O (single isomer, unassigned) [Example B41B] | 8 | 4.2 | 3.3 | 581 | 7.5 | 2 | 2 | 7 | 2 | 2 | 12 | 2 | 3 | 4.9 | 1790 | 34 | 8.8 | 2.2 | – | – | – |
| Cc1cc2cc(n1)-c1cnn(C)c1OCCN1CC3CCC(CC3)(C1)n1c(nc3ccc(N4CCC5(CC4)CCN5C)cc31)NC2=O [Example B30] | – | 11 | 4.9 | > 5000 | 17 | – | – | – | – | – | – | – | 8.7 | 12 | 3560 | 110 | 64 | 5.6 | 33 | 3 | GI50 [2, 20]: 2 nM; GI50 [2, 21]: 35 nM; GI50 [2, 22]: 4 nM; GI50 [2, 23]: 9 nM; GI50 [2, 24]: 22 nM; GI50 [2, 25]: 2 nM |
| Cc1cc2cc(n1)-c1cnn(C)c1OCCN1CC3CCC(C3)(C1)n1c(nc3ccc(N4CCC5(CCN(C)CC5)C4)cc31)NC2=O (single isomer, unassigned) [Example B51B] | 8 | 5.9 | 3.4 | 546 | 6.1 | 2 | 2 | 4 | 2 | 2 | 8 | 2 | 3.5 | 5.6 | 3030 | 21 | 8.4 | 2.9 | – | – | – |
| C[C@@H]1CCCOc2cc(F)c(F)cc2-c2cc(cn(C)c2=O)C(=O)Nc2nc3ccc(N4CCN(C)CC4)cc3n2C1 [Example A111, (12R)-4,5-difluoro-12,27-dimethyl-17-(4-methylpiperazin-1-yl)-8-oxa-14,21,23,27-tetraazapentacyclo[23.3.1.0^{2,7}.0^{14,22}.0^{15,20}]nonacosa-1(29),2(7),3,5,15,17,19,21,25-nonaene-24,28-dione] | – | – | – | – | – | – | – | – | – | – | – | – | – | – | 8230 | – | – | – | 334 | 30.3 | IC50 (EGFR L858R/T790M; EGFR L858R-T790M, 1 h, room temperature, read-out: IC50 (nM) @L858R-T790M): 86 nM; IC50 ([1]; EGFR T790M-C797S-Del19, 1 mM ATP, 1 h, room temperature, read-out: IC50 (nM) @T790M - C797S - Del19): 47 nM; IC50 (EGFR wild type; EGFR WT, 1 h, room temperature, read-out: IC50 (nM) @WT): 607 nM; IC50 (EGFR Exon19Del; EGFR Del19, 1 mM ATP, 1 h, room temperature): 21 nM; GI50 [2, 20]: 326 nM; GI50 [2, 21]: 125 nM; GI50 [2, 22]: 309 nM; GI50 [2, 23]: 658 nM; GI50 [2, 24]: 103 nM; GI50 [2, 25]: 325 nM; IC50 (EGFR (d746-750 C797S); EGFR Del19-C797S, 1 h, room temperature, read-out: IC50 (nM) @Del19-C797S): 18 nM; IC50 (EGFR Exon19Del/T790M; EGFR Del19-T790M, 1 h, room temperature, read-out: IC50 (nM) @Del19-T790M): 46 nM; IC50 (EGFR L858R; 1 h, room temperature, read-out: IC50 (nM) @L858R): 36 nM; IC50 (EGFR (C797S L858R); EGFR L858-C797S, 1 h, room temperature, read-out: IC50 (nM) @L858-C797S): 40 nM; IC50 (EGFR[T790M/C797S/L858R]; EGFR T790M-C797S-L858R, 1 h, room temperature, read-out: IC50 (nM) @T790M- C797S - L858R): 63 nM |
| Cc1cc2cc(n1)-c1cnn(C)c1OCCN1CC3CCC(C3)(C1)n1c(nc3ccc(N4CCC(N5CCOCC5)C4)cc31)NC2=O (single isomer, unassigned) [Example B44B] | 13 | 13 | 4.3 | > 5000 | 18 | 2 | 2 | 12 | 2 | 2 | 15 | 2 | 8.1 | 6.4 | 929 | 170 | 50 | 4.9 | – | – | – |
